From US20070213278A1, “Arrays with cleavable linkers” (priority 2004, published 2007)
Marks after values point to notes of the source that are not given here.

How the values were obtained:
2G12 anti-HIV antibody = test: 2G12 binding to glycan array printed on glass slide; parameters: species or system human; conditions: for 2G12 binding on glycan array: initial experiments; for Rel. spec. (relative binding activity of 2G12): glycan array on glass slide, 2G12 pre-complexed with anti-IgG-FITC
Excerpt: The natural high mannose type N-glycans used for the analysis were purified from pronase treated bovine ribonuclease B on Dionex. Each preparation was a single molecular weight species as determined by MALDI-MS.
Construction of a glycan array printed on a glass slide: The library of carbohydrate structures was obtained through chemical and chemo-enzymatic synthesis as described above, as well as natural sources. This compound library contained a N-hydroxy succinimide (NHS)-reactive primary amino group, which was printed on a commercial NHS-activated glass surface (Accelr8 Technology Corporation, Denver, Colo.) using a microarray gene printer (TSRI).
Each glycan type was printed (≈0.5 nL/spot) at various concentrations (10-100 μM) and each concentration in a replicate of six. Slides were further incubated with ethanolamine buffer to deactivate remaining NHS functional groups.
The 2G12 antibody was pre-complexed (for 10 min) with secondary human anti-IgG-FITC (2:1, 20 μg/mL) prior to application to the glycan array. After incubation with the 2G12 antibodies, the array washed by dipping the slide in buffer and water.

2G12 antibody [1] = test: 2G12 binding, cleavable linker glycan array in microtiter plates (Example 10); parameters: species or system human; conditions: for 2G12 epitope / affinity: cleavable linker array
Method: Cleavable Linker Glycan Array in Microtiter Plates: Further experiments were performed using glycans immobilized within microtiter wells with the cleavable triazole linkers described in Example 7 as shown in FIG. 11.
2G12 Binding: After washing with QH2O, wells were blocked with 10 mM HEPES buffer, pH 7.5/150 mM NaCl buffer (200 μL) containing 0.1% Tween-20 over 1 h at 4° C. The buffer was then removed and 2G12 (17 μg/mL PBS buffer; 200 μL) was incubated in the well over 1 h at 4° C. Wells were then washed with PBS buffer (3×; 200 μL) and fluorescein-conjugated Goat Anti-Human IgG antibody (14 μg/mL PBS buffer; 200 μL) was incubated in the well over 1 h in the dark at 4° C. Wells were then washed with PBS buffer (3×; 200 μL) and fluorescence was measured with an excitation wavelength of 485 nm and emission wavelength of 535 nm.
Further studies were performed using a cleavable linker array to clarify the types of mannose-containing glycans bound by the 2G12 anti-HIV antibodies. […] The results of a binding study using increasing amounts of labeled Manα1,2Manα1,3Manα1,2 Manα1,6Man glycan with a constant amount of 2G12 antibody are shown in FIG. 16.

chST6GalNAc-I = biological target: T1, chST6GalNAc-I (Gallus gallus, UniProt Q92183); test: chST6GalNAc-I activity on small acceptor molecules; assay type: biochemical, chicken; conditions: α-D-galacto derivatives as acceptors
T1 construct: made in house; host or cells: insect cells
Excerpt: The inventors have previously reported the cloning, expression, and characterization of chicken ST6GalNAc-I and its use in preparative synthesis of the O-linked sialoside antigens, STn-, α(2-6)SiaT-, α(2-3)SiaT- and Di-SiaT-antigen. Blixt, O.; Allin, K.; Pereira, L.; Datta, A. and Paulson, J. C., J. Am. Chem. Soc. 2002, 124, 5739-5746. Briefly, the recombinant enzyme was expressed in insect cells and purified by CDP-sepharose affinity chromatography to generate approximately 10 U/L of cell culture.

2G12 antibody [2] = test: Carbohydrate microarray analysis, microtiter plate, oligomannose-2G12 dissociation constants (Example 11); assay type: binding, human; conditions: microtiter plate array
Method: Carbohydrate microarray analysis. Ninety-six well NHS-coated microtiter plates (NoAb Biodiscoveries) were treated with 200 μL of a 1 mM methanolic solution of the amino-functionalized disulfide and alkyne containing linker (scheme V) containing 5% diisopropylethylamine (DIEA) and incubated overnight at 4° C. The microtiter plate was then washed with 2×200 μL methanol and 2×200 μL water. Next, 200 μL solutions of azido-functionalized oligomannose derivatives 21-25 at varying concentrations from 0 to 500 μM in 5% DIEA/methanol were introduced. A sprinkle of copper (I) iodide was added and the contents were allowed to react overnight at 4° C. The next day, the contents were removed and the plates were washed with 2×200 μL methanol and 2×200 μL water. The plates were then blocked with 0.1% Tween20 solution in HEPES buffer pH 7.5 at 4° C. for 1 hour and then washed with 3×200 μL HEPES buffer. […] Detection of the FITC-tagged secondary antibody was performed in 200 μL water using a fluorescence plate reader. […]
Carbohydrate Microarray Analysis. […] Kd values for the interaction of 2G12 with oligomannoses 4, 5, 7, 8, 9 (Table 9) were determined using a microtiter-based assay with detection via a fluorescent secondary antibody (see Bryan et al.(2004) J. Am. Chem. Soc. 126, 8640-41).

[3] = tested on: 2G12 binding to gp120JR-CSF; test: Solution phase ELISA, oligomannose inhibition of 2G12 binding to gp120; parameters: species or system human; conditions: oligomannose at 0.5 mM
Method: Enzyme-linked immunosorbent assay. Microtiter plate wells (flat bottom, Costar type 3690; Corning Inc.) were coated with 50 ng/well gp120JR-CSF overnight at 4° C. All subsequent steps were performed at room temperature. The wells were then washed four times with PBS/0.05% (vol/vol) Tween20 (Sigma) using a microplate washer (SkanWash 400, Molecular Devices) prior to blocking for 1 hr with 3% (mass/vol) BSA. IgG 2G12, diluted to 0.5 μg/mL (25 ng/well) with 1% (mass/vol) BSA/0.02% (vol/vol) Tween20/PBS (PBS-BT), was then added for 2 hrs to the antigen-coated wells in the presence of serially-diluted oligomannoses starting at 2 mM.
Unbound antibody was removed by washing four times, as described above. Bound 2G12 was detected with an alkaline phosphatase-conjugated goat anti-human IgG F(ab′)2 antibody (Pierce) diluted 1:1000 in PBS-BT. After 1 hr, the wells were washed four times and bound antibody was visualized with p-nitrophenol phosphate substrate (Sigma) and monitored at 405 nm.
Solution Phase ELISA Assay Analysis of Oligomannose 1-8 Inhibition of 2G12 Binding. Man9GlcNAc2 1 and deprotected oligomannoses 2-6 and 7-9 (see FIG. 17) were evaluated for their ability to inhibit the interaction between 2G12 and gp120 in a solution phase enzyme-linked immunosorbent assay (ELISA). […]

T1 sequence (Q92183 whole entry): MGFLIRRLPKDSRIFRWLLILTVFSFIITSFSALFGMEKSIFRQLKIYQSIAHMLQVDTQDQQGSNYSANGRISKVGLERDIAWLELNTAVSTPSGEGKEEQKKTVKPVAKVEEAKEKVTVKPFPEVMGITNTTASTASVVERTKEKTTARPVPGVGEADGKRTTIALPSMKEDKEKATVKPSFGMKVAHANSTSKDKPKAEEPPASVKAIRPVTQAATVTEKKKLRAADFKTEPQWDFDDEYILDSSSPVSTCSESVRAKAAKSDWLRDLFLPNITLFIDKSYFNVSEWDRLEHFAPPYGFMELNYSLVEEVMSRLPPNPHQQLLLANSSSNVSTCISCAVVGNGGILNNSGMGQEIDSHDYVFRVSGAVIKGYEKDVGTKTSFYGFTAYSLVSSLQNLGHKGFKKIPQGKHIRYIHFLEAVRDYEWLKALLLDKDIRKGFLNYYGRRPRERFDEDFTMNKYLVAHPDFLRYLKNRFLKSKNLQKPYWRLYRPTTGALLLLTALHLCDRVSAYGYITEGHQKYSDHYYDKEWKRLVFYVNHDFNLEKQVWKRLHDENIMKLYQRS

## Man-9#aa Man9-aminoacid [Glycan 145]
2G12 anti-HIV antibody
  2G12 binding on glycan array: smaller level of binding

## Manα1,2 Manα1,2Manα1,3Man
2G12 antibody [1]; binding to 2G12, cleavable linker array
  Kd: 100 nM
2G12 antibody [1]
  2G12 epitope / affinity: optimal epitope(s) with micromolar affinity to 2G12

## Manα1,2Manα1,3Manα1,2 Manα1,6Man
2G12 antibody [1]
  2G12 epitope / affinity: optimal epitope(s) with micromolar affinity to 2G12

## CC(=O)N[C@H]1C(O)O[C@H](CO)[C@H](O)[C@@H]1O (stereo partly drawn) [D-GalNAc, reference compound]
chST6GalNAc-I
  chST6GalNAc-I activity, nmol/mg × min^−1: 0.00 nmol/mg × min^−1

## Man-8#aa Man8-aminoacid [Glycan 144]
2G12 anti-HIV antibody
  2G12 binding on glycan array: Binding was observed

## NCCCCCO[C@H]1O[C@H](CO[C@H]2O[C@H](CO)[C@@H](O)[C@H](O)[C@@H]2O[C@H]2O[C@H](CO)[C@@H](O)[C@H](O)[C@@H]2O)[C@@H](O)[C@H](O[C@H]2O[C@H](CO)[C@@H](O)[C@H](O)[C@@H]2O[C@H]2O[C@H](CO)[C@@H](O)[C@H](O)[C@@H]2O)[C@@H]1O [Oligomannose 5]
2G12 antibody [2]
  2G12 binding affinity: greatest affinity

## Oligomannose 3
[3]
  inhibition (%) of 2G12 binding to gp120: 15.8%

## CC(=O)N[C@H]1C(O)O[C@H](CO)[C@@H](O[C@@H]2O[C@H](CO)[C@H](O)[C@H](O)[C@H]2O)[C@@H]1O (some centres unmarked) [Compound 6]
2G12 anti-HIV antibody
  Rel. spec. (relative binding activity of 2G12): − (− = <1000)
chST6GalNAc-I
  chST6GalNAc-I activity, cpm: 13277 cpm
  chST6GalNAc-I activity, nmol/mg × min^−1: 12.50* nmol/mg × min^−1

## O=[N+]([O-])c1ccc(O[C@@H]2OC(CO)[C@@H](O[C@@H]3OC(CO)[C@H](O)[C@H](O)C3O)[C@H](O)C2O)cc1 (some centres unmarked) [Compound 5]
2G12 anti-HIV antibody
  Rel. spec. (relative binding activity of 2G12): − (− = <1000)
chST6GalNAc-I
  chST6GalNAc-I activity, cpm: 1421 cpm
  chST6GalNAc-I activity, nmol/mg × min^−1: 1.30 nmol/mg × min^−1

## OCC1O[C@@H](O)C(O)[C@@H](O)[C@@H]1O[C@@H]1OC(CO)[C@H](O)[C@H](O)C1O (some centres unmarked) [Compound 4]
2G12 anti-HIV antibody
  Rel. spec. (relative binding activity of 2G12): − (− = <1000)
chST6GalNAc-I
  chST6GalNAc-I activity, cpm: 3043 cpm
  chST6GalNAc-I activity, nmol/mg × min^−1: 2.90 nmol/mg × min^−1
